Reference: patent US20020137929A1, “1 - (3-heterocyclylphenyl) isothiourea, -isourea, -guanidine and -amidine herbicidal agents” (Intellectual Property Department, BASF Aktiengesellschaft, priority 1998, published 2002)

Assays:
[1] = system: GALAP (Galium); assay: Postemergence herbicidal evaluation; format: in vivo, Galium aparine
Method in brief: (§1)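 Two-week-old seedlings sprayed with compound in 50/50 acetone/water plus 0.5% TWEEN 20, at about 0.0156 to 0.500 kg/ha, nozzle at 40 psi. Kept in greenhouse; rated visually 4-5 weeks after treatment on a 0-9 scale versus control, repeat tests averaged.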

[2] = system: IPOHE (Morningglory, Ivyleaf); assay: Postemergence herbicidal evaluation; format: in vivo, Ipomoea hederacea
Method in brief: as §1

[3] = system: SETVI (Foxtail, Green); assay: Postemergence herbicidal evaluation; format: in vivo, Setaria viridis
Method in brief: as §1

[4] = system: TRZAWR (Wheat, Winter, cv Riband); assay: Postemergence herbicidal evaluation; format: in vivo, Triticum aestivum
Method in brief: as §1

[5] = system: ABUTH (Velvetleaf); assay: Preemergence herbicidal evaluation; format: in vivo, Abutilon theophrasti; settings: rated 4-5 weeks after treatment
Method in brief: (§2)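 In this greenhouse assay, monocot and dicot seeds are planted in soil and treated prior to emergence with an aqueous acetone spray (about 0.0156-0.500 kg/ha). Plants are assessed visually against control on a 0-9 scale after 4-5 weeks.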

[6] = system: IPOHE (Morningglory, Ivyleaf); assay: Preemergence herbicidal evaluation; format: in vivo, Ipomoea hederacea; settings: rated 4-5 weeks after treatment
Method in brief: as §2

[7] = system: ECHCG (Barnyardgrass); assay: Preemergence herbicidal evaluation; format: in vivo, Echinochloa crus-galli; settings: rated 4-5 weeks after treatment
Method in brief: as §2

[8] = system: SETVI (Foxtail, Green); assay: Preemergence herbicidal evaluation; format: in vivo, Setaria viridis; settings: rated 4-5 weeks after treatment
Method in brief: as §2

[9] = system: ZEAMX (Corn, Field); assay: Preemergence herbicidal evaluation; format: in vivo, Zea mays; settings: rated 4-5 weeks after treatment
Method in brief: as §2

[10] = system: ECHORC (Watergrass (Calif.)); assay: Preemergence weed control under flooded paddy conditions; format: in vivo, Echinochloa oryzoides; settings: rated 3-4 weeks after treatment
Method in brief: (§3)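 Flooded-pot preemergence screen with silt loam and seeds in the upper 0.5 cm. Dose about 0.0313 to 0.500 kg/ha, delivered into flood water; visual 0-9 score after 3 to 4 weeks.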

[11] = system: CYPIR (Rice Flatsedge); assay: as above; format: in vivo, Cyperus iria; settings: rated 3-4 weeks after treatment
Method in brief: as §3

[12] = system: MOOVA (Monochoria); assay: as above; format: in vivo, Monochoria vaginalis; settings: rated 3-4 weeks after treatment
Method in brief: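 Seeds or propagules sown in top 0.5 cm of silt loam soil, flooded 1.5 to 3 cm above surface throughout. Compound in 50/50 v/v aqueous/acetone pipetted into flood water at about 0.0313 to 0.500 kg/ha. Visual 0-9 rating versus control after three to four weeks in greenhouse.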

[13] = system: ECHORC (Watergrass (Calif.)); assay: Postemergence weed control under flooded paddy conditions; format: in vivo, Echinochloa oryzoides; settings: postemergence weeds, 3-4 weeks after treatment
Method in brief: (§4)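 Weeds 3 to 5 cm tall and rice seedlings at the 1.5 to 2.5 leaf stage were flooded, with water held 1.5 to 3 cm above the soil. Compounds in 50/50 v/v aqueous/acetone went into the flood water at about 0.0313 to 0.500 kg/ha. Visual 0-9 ratings versus control were made 3 to 4 weeks later.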

[14] = system: SAGPY (Arrowhead (Pygmaea)); assay: as above; format: in vivo, Sagittaria pygmaea; settings: postemergence weeds, 3-4 weeks after treatment
Method in brief: as §4

## CCOC(=O)CN1C(=O)C(CC(=O)OC)S/C1=N/c1cc(-n2c(=O)cc(C(F)(F)F)n(C)c2=O)c(F)cc1Cl (centres unmarked) [Compound 54, 2-{{2-Chloro-5-[3,6-dihydro-3-methyl-2,6-dioxo-4-(trifluoromethyl)-1(2H)-pyrimidinyl]-4-fluorophenyl}imino}-4-oxo-3,5-thiazolidinediacetic acid, 3-ethyl methyl ester]
[1]; Rate 0.0158 kg/ha
  Postemergence herbicidal rating GALAP: 6.0
[1]; Rate 0.0315 kg/ha
  Postemergence herbicidal rating GALAP: 9.0
[1]; Rate 0.0630 kg/ha
  Postemergence herbicidal rating GALAP: 9.0
[2]; Rate 0.0158 kg/ha
  Postemergence herbicidal rating IPOHE: 9.0
[2]; Rate 0.0315 kg/ha
  Postemergence herbicidal rating IPOHE: 9.0
[2]; Rate 0.0630 kg/ha
  Postemergence herbicidal rating IPOHE: 9.0
[3]; Rate 0.0158 kg/ha
  Postemergence herbicidal rating SETVI: 9.0
[3]; Rate 0.0315 kg/ha
  Postemergence herbicidal rating SETVI: 9.0
[3]; Rate 0.0630 kg/ha
  Postemergence herbicidal rating SETVI: 9.0
[4]; Rate 0.0158 kg/ha
  Postemergence herbicidal rating TRZAWR: 5.0
[4]; Rate 0.0315 kg/ha
  Postemergence herbicidal rating TRZAWR: 7.0
[4]; Rate 0.0630 kg/ha
  Postemergence herbicidal rating TRZAWR: 9.0
[5]; rate 0.0156 kg/ha
  Preemergence herbicidal rating ABUTH: 4.5
[5]; rate 0.0313 kg/ha
  Preemergence herbicidal rating ABUTH: 7.5
[5]; rate 0.0625 kg/ha
  Preemergence herbicidal rating ABUTH: 9.0
[5]; rate 0.1250 kg/ha
  Preemergence herbicidal rating ABUTH: 9.0
[5]; rate 0.2500 kg/ha
  Preemergence herbicidal rating ABUTH: 9.0
[5]; rate 0.5000 kg/ha
  Preemergence herbicidal rating ABUTH: 9.0
[6]; rate 0.0156 kg/ha
  Preemergence herbicidal rating IPOHE: 1.5
[6]; rate 0.0313 kg/ha
  Preemergence herbicidal rating IPOHE: 6.0
[6]; rate 0.0625 kg/ha
  Preemergence herbicidal rating IPOHE: 9.0
[6]; rate 0.1250 kg/ha
  Preemergence herbicidal rating IPOHE: 7.5
[6]; rate 0.2500 kg/ha
  Preemergence herbicidal rating IPOHE: 9.0
[6]; rate 0.5000 kg/ha
  Preemergence herbicidal rating IPOHE: 9.0
[7]; rate 0.0156 kg/ha
  Preemergence herbicidal rating ECHCG: 0.0
[7]; rate 0.0313 kg/ha
  Preemergence herbicidal rating ECHCG: 0.0
[7]; rate 0.0625 kg/ha
  Preemergence herbicidal rating ECHCG: 0.0
[7]; rate 0.1250 kg/ha
  Preemergence herbicidal rating ECHCG: 2.0
[7]; rate 0.2500 kg/ha
  Preemergence herbicidal rating ECHCG: 5.0
[7]; rate 0.5000 kg/ha
  Preemergence herbicidal rating ECHCG: 9.0
[8]; rate 0.0156 kg/ha
  Preemergence herbicidal rating SETVI: 1.0
[8]; rate 0.0313 kg/ha
  Preemergence herbicidal rating SETVI: 2.0
[8]; rate 0.0625 kg/ha
  Preemergence herbicidal rating SETVI: 3.5
[8]; rate 0.1250 kg/ha
  Preemergence herbicidal rating SETVI: 7.0
[8]; rate 0.2500 kg/ha
  Preemergence herbicidal rating SETVI: 9.0
[8]; rate 0.5000 kg/ha
  Preemergence herbicidal rating SETVI: 9.0
[9]; rate 0.0156 kg/ha
  Preemergence herbicidal rating ZEAMX: 0.0
[9]; rate 0.0313 kg/ha
  Preemergence herbicidal rating ZEAMX: 1.0
[9]; rate 0.0625 kg/ha
  Preemergence herbicidal rating ZEAMX: 1.0
[9]; rate 0.1250 kg/ha
  Preemergence herbicidal rating ZEAMX: 2.0
[9]; rate 0.2500 kg/ha
  Preemergence herbicidal rating ZEAMX: 4.0
[9]; rate 0.5000 kg/ha
  Preemergence herbicidal rating ZEAMX: 3.0
[10]; 0.0313 kg/ha
  Herbicidal rating ECHORC: 5.0
[10]; 0.0625 kg/ha
  Herbicidal rating ECHORC: 5.0
[10]; 0.1250 kg/ha
  Herbicidal rating ECHORC: 7.0
[10]; 0.2500 kg/ha
  Herbicidal rating ECHORC: 9.0
[11]; 0.0313 kg/ha
  Herbicidal rating CYPIR: 0.0
[11]; 0.0625 kg/ha
  Herbicidal rating CYPIR: 4.0
[11]; 0.1250 kg/ha
  Herbicidal rating CYPIR: 4.0
[11]; 0.2500 kg/ha
  Herbicidal rating CYPIR: 4.0
[12]; 0.0313 kg/ha
  Herbicidal rating MOOVA: 0.0
[12]; 0.0625 kg/ha
  Herbicidal rating MOOVA: 0.0
[12]; 0.1250 kg/ha
  Herbicidal rating MOOVA: 6.0
[12]; 0.2500 kg/ha
  Herbicidal rating MOOVA: 6.0
[13]; rate 0.0313 kg/ha
  Herbicidal rating ECHORC: 5.0
[13]; rate 0.0625 kg/ha
  Herbicidal rating ECHORC: 5.0
[13]; rate 0.1250 kg/ha
  Herbicidal rating ECHORC: 7.0
[13]; rate 0.2500 kg/ha
  Herbicidal rating ECHORC: 9.0
[14]; rate 0.0313 kg/ha
  Herbicidal rating SAGPY: 0.0
[14]; rate 0.0625 kg/ha
  Herbicidal rating SAGPY: 0.0
[14]; rate 0.1250 kg/ha
  Herbicidal rating SAGPY: 0.0
[14]; rate 0.2500 kg/ha
  Herbicidal rating SAGPY: 2.0
